How the values were obtained:
Type in all cases: in vivo, NOD.B10-H2b mice
[1] = test system: goblet cells in the conjunctiva; assay: Goblet cell number by PAS staining of eyeball sections from dry eye-induced mice after eye drop instillation; settings: eye drop instillation for 10 days; PAS staining photographs (FIG. 2)
Experimental: (§1) 12-week-old or older NOD.B10-H2b mice were kept in a chamber with a humidity of 40% or lower for 10 days. Scopolamine hydrobromide (Sigma-Aldrich, SLBR8568V) at a concentration of 0.5 mg/0.2 ml was injected subcutaneously into the thigh 4 times (9 am, 12 pm, 3 pm, and 6 pm) daily while the mice were kept in the chamber. After 10 days, tear secretion volume and corneal smoothness score were measured, and only those mice with a tear secretion volume of 0.06 μl or lower and a corneal smoothness score of 2 or lower were selected.
(§2) For each test drug, eye drop instillation was performed as follows: Vehicle, 4 times a day; Diquas (Santen Pharmaceutical Co., Ltd., Japan), 6 times a day; Xiidra (Shire plc, USA), twice a day; and GBT-201, twice or 4 times a day. After 10 days, each group of mice was sacrificed, the eyeballs were collected, and tissue immunostaining and molecular biological analysis were performed (FIG. 1).
In order to identify whether thymosin beta 4 promotes proliferation of goblet cells, which are cells that secrete mucin in the conjunctiva, the eyeballs of the mice sacrificed in Experimental Example 1 were collected and assessed through periodicacid-Schiff (PAS) staining. […]

[2] = test system: mucin secreted in the conjunctiva; assay: Amount of mucin secreted by Alcian blue staining of eyeball sections from dry eye-induced mice after eye drop instillation; settings: eye drop instillation for 10 days; Alcian blue staining photographs (FIG. 4)
Experimental: as §1, §2
In order to identify whether thymosin beta 4 results in an increase in amount of mucin secreted in the conjunctiva, the eyeballs of the mice sacrificed in Experimental Example 1 were collected and assessed through Alcian blue staining.
Specifically, the eyeballs of the mice sacrificed in Experimental Example 1 were collected, and the eyes and adnexa, which had been fixed in formalin for 3 days, were cut into 6 μm sections using a microtome. […]

[3] = test system: Muc1; assay: Immunofluorescence staining of Muc1 in cornea and conjunctiva of dry eye-induced mice; settings: corneal and conjunctival epithelium; eye drop instillation for 10 days; immunofluorescence (FIGS. 6 and 7)
Experimental: as §1
(§3) For each test drug, eye drop instillation was performed as follows: Vehicle, 4 times a day; Diquas (Santen Pharmaceutical Co., Ltd., Japan), 6 times a day; Xiidra (Shire plc, USA), twice a day; and GBT-201, twice or 4 times a day. After 10 days, each group of mice was sacrificed, the eyeballs were collected, and tissue immunostaining and molecular biological analysis were performed (FIG. 1). […]
(§4) Specifically, the eyeballs of the mice sacrificed in Experimental Example 1 were collected, and the eyes and adnexa, which had been fixed in formalin for 3 days, were cut into 6 μm sections using a microtome. […] The mounted slide was photographed using a fluorescence microscope (Leica DM2500, Leica Microsystems GmbH, Wetzlar, Germany).

[4] = test system: Muc4; assay: Immunofluorescence staining of Muc4 in cornea and conjunctiva of dry eye-induced mice; settings: corneal and conjunctival epithelium; eye drop instillation for 10 days; immunofluorescence (FIGS. 6 and 7)
Experimental: as §1, §3, §4

[5] = test system: Muc16; assay: Immunofluorescence staining of Muc16 in cornea and conjunctiva of dry eye-induced mice; settings: corneal and conjunctival epithelium; eye drop instillation for 10 days; immunofluorescence (FIGS. 6 and 7)
Experimental: as §1, §3, §4

[6] = test system: Muc5AC; assay: Immunofluorescence staining of Muc5AC in cornea and conjunctiva of dry eye-induced mice; settings: eye drop instillation for 10 days, immunofluorescence (FIGS. 6 and 7)
Experimental: as §1, §3, §4

thymosin beta 4 (SDKPDMAEIEKFDKSKLKKTETQEKNPLPSKETIEQEKQAGES; thymosin beta 4; listed as Homo sapiens)
increased: number of goblet cells as compared with the DS D10 control group, visually identified [1] | amount of mucin secreted as compared with the DS D10 control group, visually identified [2] | expression level of Muc1 as compared with the DS D10 control group, visually identified [3] | expression level of Muc4 as compared with the DS D10 control group, visually identified [4] | expression level of Muc16 as compared with the DS D10 control group, visually identified [5] | expression level of Muc5AC as compared with the DS D10 control group, visually identified [6]

— US20200353052A1, “COMPOSITION FOR PROMOTING GOBLET CELL PROLIFERATION OR MUCIN SECRETION COMPRISING THYMOSIN BETA 4 OR DERIVATIVE THEREOF AS ACTIVE INGREDIENT” (G-TREEBNT CO., LTD., priority 2017, published 2020)
